Results published in patent publication US20020065219A1, “Water soluble thiazolyl peptide derivatives” (priority 2000, published 2002).
Values after ≈ are worked out from the molar mass of the structure shown. Read-outs that look alike come from different tables or passages of the source.

Key:
Assay in all cases: MIC, broth micro dilution assay (NCCLS)
Format in all cases: cell-based
[1] = tested on: Staphylococcus aureus A15090
[2] = tested on: Streptococcus pneumoniae A28272
[3] = tested on: Enterococcus faecalis A20688
[4] = Mueller-Hinton medium, 35° C., 18 hours
[5] = 50% Mueller-Hinton medium and 50% Todd Hewitt medium, 35° C., 18 hours

Structure (SMILES) | MIC (μg/mL) against Staphylococcus aureus A15090 [1, 4] | MIC (μg/mL) against Streptococcus pneumoniae A28272 [2, 5] | MIC (μg/mL) against Enterococcus faecalis A20688 [3, 4] | MIC (μg/mL) against Staphylococcus aureus A15090 [1] | MIC (μg/mL) against Streptococcus pneumoniae A28272 [2] | MIC (μg/mL) against Enterococcus faecalis A20688 [3] | other results
COC(C)=C1NC(=O)C(C(C)O)NC(=O)c2csc(n2)-c2cc(O)c(-c3nc(C(=O)NC(CN4CCCC4CO)C(N)=O)cs3)nc2-c2csc(n2)C2COC(=O)c3c4c5c(cccc5n3O)COC(=O)C(OC3CC(C)(O)C(N(C)C)C(C)O3)C(OC4)C(NC(=O)c3csc1n3)c1nc(cs1)C(=O)N2 (stereo not drawn) [Example 78] | 0.03 µg/mL (≈ 0.0195 µM) | 0.007 µg/mL (≈ 0.00455 µM) | 0.125 µg/mL (≈ 0.0812 µM) |  |  |  | 
COCCOCCOCCOCCN1CCN(CC(NC(=O)c2csc(-c3nc4c(cc3O)-c3nc(cs3)C(=O)NC(C(C)O)C(=O)N/C(=C(\C)OC)c3nc(cs3)C(=O)NC3c5nc(cs5)C(=O)NC(COC(=O)c5c6c7c(cccc7n5O)COC(=O)C(O[C@H]5C[C@](C)(O)[C@H](N(C)C)[C@H](C)O5)C3OC6)c3nc-4cs3)n2)C(N)=O)CC1 (stereo partly drawn) [Example 69] |  |  |  | 0.5 µg/mL (≈ 0.292 µM) | 0.25 µg/mL (≈ 0.146 µM) | 4.0 µg/mL (≈ 2.33 µM) | 
COC(C)=C1NC(=O)C(C(C)O)NC(=O)c2csc(n2)-c2cc(O)c(-c3nc(C(=O)NC(CN4CCCC4C(C)O)C(N)=O)cs3)nc2-c2csc(n2)C2COC(=O)c3c4c5c(cccc5n3O)COC(=O)C(OC3CC(C)(O)C(N(C)C)C(C)O3)C(OC4)C(NC(=O)c3csc1n3)c1nc(cs1)C(=O)N2 (stereo not drawn) [Example 86] | 0.007 µg/mL (≈ 0.00451 µM) | 0.015 µg/mL (≈ 0.00966 µM) | 0.06 µg/mL (≈ 0.0386 µM) |  |  |  | 
COC(C)=C1NC(=O)C(C(C)O)NC(=O)c2csc(n2)-c2cc(O)c(-c3nc(C(=O)NC(CSCC(=O)O)C(N)=O)cs3)nc2-c2csc(n2)C2COC(=O)c3c4c5c(cccc5n3O)COC(=O)C(O)C(OC4)C(NC(=O)c3csc1n3)c1nc(cs1)C(=O)N2 (stereo not drawn) [Example 95] | 0.5 µg/mL (≈ 0.368 µM) | 0.03 µg/mL (≈ 0.0221 µM) | 4.0 µg/mL (≈ 2.94 µM) |  |  |  | 
CO/C(C)=C1/NC(=O)C(C(C)O)NC(=O)c2csc(n2)-c2cc(O)c(-c3nc(C(=O)NC(CN(C)Cc4ccccc4O[C@@H]4O[C@H](CO)[C@@H](O)[C@H](O)[C@H]4O)C(N)=O)cs3)nc2-c2csc(n2)C2COC(=O)c3c4c5c(cccc5n3O)COC(=O)C(O[C@H]3C[C@](C)(O)[C@H](N(C)C)[C@H](C)O3)C(OC4)C(NC(=O)c3csc1n3)c1nc(cs1)C(=O)N2 (stereo partly drawn) [Example 29] | 0.06 µg/mL (≈ 0.0345 µM) | 0.015 µg/mL (≈ 0.00864 µM) | 0.25 µg/mL (≈ 0.144 µM) |  |  |  | 
CNC(=O)N(C)CC(NC(=O)c1csc(-c2nc3c(cc2O)-c2nc(cs2)C(=O)NC(C(C)O)C(=O)N/C(=C(\C)OC)c2nc(cs2)C(=O)NC2c4nc(cs4)C(=O)NC(COC(=O)c4c5c6c(cccc6n4O)COC(=O)C(OC4CC(C)(O)C(N(C)C)C(C)O4)C2OC5)c2nc-3cs2)n1)C(N)=O (stereo not drawn) [Example 109] | 0.06 µg/mL (≈ 0.0393 µM) | 0.06 µg/mL (≈ 0.0393 µM) | 0.5 µg/mL (≈ 0.328 µM) |  |  |  | 
CO/C(C)=C1/NC(=O)C(C(C)O)NC(=O)c2csc(n2)-c2cc(O)c(-c3nc(C(=O)NC(CSCCc4nnn[nH]4)C(N)=O)cs3)nc2-c2csc(n2)C2COC(=O)c3c4c5c(cccc5n3O)COC(=O)C(O[C@H]3C[C@](C)(O)[C@H](N(C)C)[C@H](C)O3)C(OC4)C(NC(=O)c3csc1n3)c1nc(cs1)C(=O)N2 (stereo partly drawn) [Example 47] | 2.0 µg/mL (≈ 1.28 µM) | 0.25 µg/mL (≈ 0.159 µM) | 32 µg/mL (≈ 20.4 µM) |  |  |  | 
COC(C)=C1NC(=O)C(C(C)O)NC(=O)c2csc(n2)-c2cc(O)c(-c3nc(C(=O)NC(CN4CCCC4C(O)c4nccn4C)C(N)=O)cs3)nc2-c2csc(n2)C2COC(=O)c3c4c5c(cccc5n3O)COC(=O)C(OC3CC(C)(O)C(N(C)C)C(C)O3)C(OC4)C(NC(=O)c3csc1n3)c1nc(cs1)C(=O)N2 (stereo not drawn) [Example 91] | 0.03 µg/mL (≈ 0.0185 µM) | 0.015 µg/mL (≈ 0.00927 µM) | 0.06 µg/mL (≈ 0.0371 µM) |  |  |  | 
CO/C(C)=C1/NC(=O)C(C(C)O)NC(=O)c2csc(n2)-c2cc(O)c(-c3nc(C(=O)NC(CSC4CN5CCC4CC5)C(N)=O)cs3)nc2-c2csc(n2)C2COC(=O)c3c4c5c(cccc5n3O)COC(=O)C(O[C@H]3C[C@](C)(O)[C@H](N(C)C)[C@H](C)O3)C(OC4)C(NC(=O)c3csc1n3)c1nc(cs1)C(=O)N2 (stereo partly drawn) [Example 60] |  |  |  | 2.0 µg/mL (≈ 1.27 µM) | 0.5 µg/mL (≈ 0.316 µM) | 2.0 µg/mL (≈ 1.27 µM) | 
CO/C(C)=C1/NC(=O)C(C(C)O)NC(=O)c2csc(n2)-c2cc(O)c(-c3nc(C(=O)NC(CN4CCCC4)C(N)=O)cs3)nc2-c2csc(n2)C2COC(=O)c3c4c5c(cccc5n3O)COC(=O)C(O[C@H]3C[C@](C)(O)[C@H](N(C)C)[C@H](C)O3)C(OC4)C(NC(=O)c3csc1n3)c1nc(cs1)C(=O)N2 (stereo partly drawn) [Example 15] |  |  |  | 0.06 µg/mL (≈ 0.0398 µM) | 0.015 µg/mL (≈ 0.00994 µM) | 0.5 µg/mL (≈ 0.331 µM) | 
CO/C(C)=C1/NC(=O)C(C(C)O)NC(=O)c2csc(n2)-c2cc(O)c(-c3nc(C(=O)NC(CN4CCN(CCOCCO)CC4)C(N)=O)cs3)nc2-c2csc(n2)C2COC(=O)c3c4c5c(cccc5n3O)COC(=O)C(O[C@H]3C[C@](C)(O)[C@H](N(C)C)[C@H](C)O3)C(OC4)C(NC(=O)c3csc1n3)c1nc(cs1)C(=O)N2 (stereo partly drawn) [Example 49] | 0.5 µg/mL (≈ 0.31 µM) | 0.5 µg/mL (≈ 0.31 µM) | 2.0 µg/mL (≈ 1.24 µM) |  |  |  | 
CO/C(C)=C1/NC(=O)C(C(C)O)NC(=O)c2csc(n2)-c2cc(O)c(-c3nc(C(=O)NC(CN4CCN(c5ncccn5)CC4)C(N)=O)cs3)nc2-c2csc(n2)C2COC(=O)c3c4c5c(cccc5n3O)COC(=O)C(O[C@H]3C[C@](C)(O)[C@H](N(C)C)[C@H](C)O3)C(OC4)C(NC(=O)c3csc1n3)c1nc(cs1)C(=O)N2 (stereo partly drawn) [Example 22] |  |  |  | 0.5 µg/mL (≈ 0.312 µM) | 0.0005 µg/mL (≈ 0.000312 µM) | 1.0 µg/mL (≈ 0.624 µM) | 
COC(C)=C1NC(=O)C(C(C)O)NC(=O)c2csc(n2)-c2cc(O)c(-c3nc(C(=O)NC(CN4CC5CC4CN5C)C(N)=O)cs3)nc2-c2csc(n2)C2COC(=O)c3c4c5c(cccc5n3O)COC(=O)C(OC3CC(C)(O)C(N(C)C)C(C)O3)C(OC4)C(NC(=O)c3csc1n3)c1nc(cs1)C(=O)N2 (stereo not drawn) [Example 74] |  |  |  | 0.5 µg/mL (≈ 0.323 µM) | 0.015 µg/mL (≈ 0.00968 µM) | 2.0 µg/mL (≈ 1.29 µM) | 
CO/C(C)=C1/NC(=O)C(C(C)O)NC(=O)c2csc(n2)-c2cc(O)c(-c3nc(C(=O)NC(CNCc4nn[nH]n4)C(N)=O)cs3)nc2-c2csc(n2)C2COC(=O)c3c4c5c(cccc5n3O)COC(=O)C(O[C@H]3C[C@](C)(O)[C@H](N(C)C)[C@H](C)O3)C(OC4)C(NC(=O)c3csc1n3)c1nc(cs1)C(=O)N2 (stereo partly drawn) [Example 50] |  |  |  | 0.25 µg/mL (≈ 0.163 µM) | 0.25 µg/mL (≈ 0.163 µM) | 1.0 µg/mL (≈ 0.651 µM) | 
COC(C)=C1NC(=O)C(C(C)O)NC(=O)c2csc(n2)-c2cc(O)c(-c3nc(C(=O)NC(CN4CCN(c5cccnc5)CC4)C(N)=O)cs3)nc2-c2csc(n2)C2COC(=O)c3c4c5c(cccc5n3O)COC(=O)C(OC3CC(C)(O)C(N(C)C)C(C)O3)C(OC4)C(NC(=O)c3csc1n3)c1nc(cs1)C(=O)N2 (stereo not drawn) [Example 85] |  |  |  | 0.06 µg/mL (≈ 0.0375 µM) | 0.007 µg/mL (≈ 0.00437 µM) | 0.25 µg/mL (≈ 0.156 µM) | 
CCOC(=O)CN1CCN(CC(NC(=O)c2csc(-c3nc4c(cc3O)-c3nc(cs3)C(=O)NC(C(C)O)C(=O)N/C(=C(\C)OC)c3nc(cs3)C(=O)NC3c5nc(cs5)C(=O)NC(COC(=O)c5c6c7c(cccc7n5O)COC(=O)C(O[C@H]5C[C@](C)(O)[C@H](N(C)C)[C@H](C)O5)C3OC6)c3nc-4cs3)n2)C(N)=O)CC1 (stereo partly drawn) [Example 36] | 0.06 µg/mL (≈ 0.0373 µM) | 0.007 µg/mL (≈ 0.00435 µM) | 0.25 µg/mL (≈ 0.155 µM) |  |  |  | 
CO/C(C)=C1/NC(=O)C(C(C)O)NC(=O)c2csc(n2)-c2cc(O)c(-c3nc(C(=O)NC(CN4CCN(c5ccccn5)CC4)C(N)=O)cs3)nc2-c2csc(n2)C2COC(=O)c3c4c5c(cccc5n3O)COC(=O)C(O[C@H]3C[C@](C)(O)[C@H](N(C)C)[C@H](C)O3)C(OC4)C(NC(=O)c3csc1n3)c1nc(cs1)C(=O)N2 (stereo partly drawn) [Example 48] |  |  |  | 0.125 µg/mL (≈ 0.0781 µM) | 0.03 µg/mL (≈ 0.0187 µM) | 0.25 µg/mL (≈ 0.156 µM) | 
CO/C(C)=C1/NC(=O)C(C(C)O)NC(=O)c2csc(n2)-c2cc(O)c(-c3nc(C(=O)NC(CS(=O)(=O)C4C[N+]5([O-])CCC4CC5)C(N)=O)cs3)nc2-c2csc(n2)C2COC(=O)c3c4c5c(cccc5n3O)COC(=O)C(OC3CC(C)(O)C([N+](C)(C)[O-])C(C)O3)C(OC4)C(NC(=O)c3csc1n3)c1nc(cs1)C(=O)N2 (stereo not drawn) [Example 105] |  |  |  |  |  |  | MIC ([1]; Staphylococcus aureus, A15090, 18 h, read-out: MIC (μg/mL) against Staphylococcus aureus A15090): 1 µg/mL (≈ 0.608 µM); MIC ([2]; Streptococcus pneumoniae, A28272, 18 h, read-out: MIC (μg/mL) against Streptococcus pneumoniae A28272): 0.25 µg/mL (≈ 0.152 µM); MIC ([3]; Enterococcus faecalis, A20688, 18 h, read-out: MIC (μg/mL) against Enterococcus faecalis A20688): 2 µg/mL (≈ 1.22 µM)
COC(C)=C1NC(=O)C(C(C)O)NC(=O)c2csc(n2)-c2cc(O)c(-c3nc(C(=O)NC(CN4CCN(Cc5cc(OC)c(OC)c(OC)c5)CC4)C(N)=O)cs3)nc2-c2csc(n2)C2COC(=O)c3c4c5c(cccc5n3O)COC(=O)C(OC3CC(C)(O)C(N(C)C)C(C)O3)C(OC4)C(NC(=O)c3csc1n3)c1nc(cs1)C(=O)N2 (stereo not drawn) [Example 71] |  |  |  | 1.0 µg/mL (≈ 0.587 µM) | 0.5 µg/mL (≈ 0.293 µM) | 2.0 µg/mL (≈ 1.17 µM) | 
CCN(CC)CCN(CCN(CC)CC)CC(NC(=O)c1csc(-c2nc3c(cc2O)-c2nc(cs2)C(=O)NC(C(C)O)C(=O)N/C(=C(\C)OC)c2nc(cs2)C(=O)NC2c4nc(cs4)C(=O)NC(COC(=O)c4c5c6c(cccc6n4O)COC(=O)C(O[C@H]4C[C@](C)(O)[C@H](N(C)C)[C@H](C)O4)C2OC5)c2nc-3cs2)n1)C(N)=O (stereo partly drawn) [Example 24] |  |  |  | 1.0 µg/mL (≈ 0.605 µM) | 0.007 µg/mL (≈ 0.00423 µM) | 2.0 µg/mL (≈ 1.21 µM) | 
